What was measured:
5-HT1A receptor [1] = target: T1, 5-HT1A receptor (Rattus norvegicus, UniProt P19327); assay: 5-HT1A binding affinity in rat hippocampal membrane homogenate (method of Alexander and Wood); set-up: in rat hippocampal membrane homogenate; from tissue; host or cells: rat hippocampus (membrane homogenate)
T1 sequence (P19327 1-422): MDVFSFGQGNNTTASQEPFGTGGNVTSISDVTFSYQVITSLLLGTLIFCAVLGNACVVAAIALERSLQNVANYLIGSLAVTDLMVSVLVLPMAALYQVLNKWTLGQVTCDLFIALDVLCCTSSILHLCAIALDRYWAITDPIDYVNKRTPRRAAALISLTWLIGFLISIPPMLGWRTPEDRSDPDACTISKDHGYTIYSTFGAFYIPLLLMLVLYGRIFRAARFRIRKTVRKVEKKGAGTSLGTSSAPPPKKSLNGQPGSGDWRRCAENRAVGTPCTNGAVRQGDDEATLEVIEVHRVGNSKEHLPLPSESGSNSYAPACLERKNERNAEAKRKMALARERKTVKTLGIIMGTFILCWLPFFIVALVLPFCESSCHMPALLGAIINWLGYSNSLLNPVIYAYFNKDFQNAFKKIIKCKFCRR
Experimental: The compounds were tested for 5-HT1A binding affinity (column 2) in rat hippocampal membrane homogenate by the method of B.S. Alexander and M.D. Wood, J. Pharm. Pharmacol., 1988, 40, 888-891.

5-HT1A receptor [2] = target: T1, 5-HT1A receptor; assay: 5-HT1A receptor antagonist activity: antagonism of the 8-OH-DPAT syndrome in rats after oral pretreatment; type: in vivo; set-up: from tissue; host or cells: whole animal (rat), in vivo
Experimental: 5-HT1A receptor antagonist activity (columns 5 and 6) is assessed by the ability of the selective 5-HT1A receptor agonist, 8-OH-DPAT, to induce 'the 8-OH-DPAT syndrome' in rats characterised by extended flat body posture, forepaw treading and hyperlocomotion. The 8-OH-DPAT syndrome is scored as present (definite syndrome response) or absent (equivocal or no syndrome response) during the period 0-5 min following intravenous (i.v.) administration of the test agonist via a lateral tail vein.
A range of doses, on a logarithmic scale and encompassing the expected ED50, were chosen for the test agonist following preliminary evaluation. […]
Test antagonists were administered orally (p.o.) 60 min, before i.v. administration of 8-OH-DPAT. ED50 values for 8-OH-DPAT were determined for the different pretreatment groups using the sequential up/down procedure as described above.
The response to the selective 5-HT1A receptor agonist, 8-OH-DPAT, is represented as an ED50 value for induction of the 8-OH-DPAT syndrome, which is determined using the sequential up/down analysis following intravenous administration. 5-HT1A antagonist activity is determined by the ability of the test compound to antagonise the response to 8-OH-DPAT, i.e. to increase the ED50 for induction of the 8-OH-DPAT syndrome compared with vehicle pretreatment. […]

α1 receptors = assay: α1 binding affinity (procedure of Marrow et al)
Experimental: The compounds were tested for α1 binding affinity (column 3) by the procedure of A.L. Marrow et al, Mol. Pharmacol., 1986, 29, 321.

C[C@H](CN(C(=O)C1CCCCC1)c1ccccn1)N1CCN(c2cccc3c2OCCO3)CC1 [Example A1]
Ratio 5HT1A/α1 (5-HT1A receptor [1]; binding selectivity, ratio of 5-HT1A binding to α1-binding): 145
IC50 (5-HT1A receptor [1]; rat hippocampal membrane homogenate): 4.3 nM
5-HT1A-antagonist Ratio (ED50 antagonist @ 3mg/kg po)/ED50 vehicle (5-HT1A receptor [2]; ED50 of i.v. 8-OH-DPAT after test compound 3 mg/kg p.o. divided by ED50 after vehicle): 20
5-HT1A-antagonist activity MED (5-HT1A receptor [2]; antagonist p.o. 60 min before i.v. 8-OH-DPAT, lowest dose at which ED50 confidence limits of antagonist and vehicle groups do not overlap): 1 mg/kg po
IC50 (α1 receptors): 625 nM

Source: EP0839146B1, “PIPERAZINE DERIVATIVES AND THEIR USE AS 5-HT1A ANTAGONISTS” (AMERICAN HOME PRODUCTS CORPORATION, priority 1995, dated 1997)
